# Laboratory results: patent US5053070A, “Pyrimidine derivatives, preparation processes thereof, herbicide containing the same, and herbicidal compositions containing the same along with other active ingredient” (Mitsui Toatsu Chemicals, Incorporated, priority 1988, dated 1991)
# Legend:
# rice [1] = test: Treatment of soil under submerged condition, pre-emergence (Test 4), injury; format: in vivo; details: 30 g ai/a granule, 30 days later
# In short: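 Under submerged conditions, pots carrying weed propagules and transplanted young rice (2–3 leaves) were given a granulated test composition one day after planting, ahead of weed emergence. Plants grew in a greenhouse, with weed emergence and crop injury read 30 days after treatment.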
# johnsongrass = test: Upland foliar application test (Test 3); format: in vivo; details: 30 g ai/a, foliar spray at 2-3 leaves, 30th day
# In short: (§1)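 Steps: sow in upland soil, greenhouse; grow to 2-3 leaf stage; spray leaves with water-diluted emulsion at 5 l per are using a ULV sprayer; assess effects on day 30.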
# foxtail meadow = test: Upland foliar application test (Test 3); format: in vivo; details: 30 g ai/a, foliar spray at 2-3 leaves, 30th day
# In short: as §1
# large crabgrass = test: Upland foliar application test (Test 3); format: in vivo; details: 30 g ai/a, foliar spray at 2-3 leaves, 30th day
# In short: as §1
# common lambsquarters = test: Upland foliar application test (Test 3); format: in vivo; details: 30 g ai/a, foliar spray at 2-3 leaves, 30th day
# In short: as §1
# redroot pigweed = test: Upland foliar application test (Test 3); format: in vivo; details: 30 g ai/a, foliar spray at 2-3 leaves, 30th day
# In short: as §1
# green foxtail = test: Upland foliar application test (Test 3); format: in vivo; details: 30 g ai/a, foliar spray at 2-3 leaves, 30th day
# In short: as §1
# barnyardgrass [2] = test: Upland foliar application test (Test 3); format: in vivo; details: 30 g ai/a, foliar spray at 2-3 leaves, 30th day
# In short: as §1
# [3] = tested on: ALS (acetolactate syntase); test: ALS enzyme assay (Test 1); format: biochemical, pea; details: 1,000 ppm (0.5 mg/0.5 ml)
# In short: (§2)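 Partially purified ALS from dark-grown pea and barnyardgrass seedlings incubated 1 h at 30° C with pyruvate, TPP, MgCl2 and FAD. Compounds tested at 1,000 ppm (0.5 mg/0.5 ml). Acetoin formed detected colorimetrically at 525 nm via creatine/α-naphthol, relative to blank and acid-stopped controls.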
# bulrush = test: Treatment of soil under submerged condition, post-emergence (Test 5); format: in vivo; details: 30 g ai/a granule, 30 days later
# In short: (§3)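 Pots of submerged soil were sown with weed seeds or tubers, and 2-3-leaf rice seedling pairs were transplanted. At barnyardgrass two-leaf stage a granule formulation was applied. Weed emergence and rice injury were rated 30 days later as damage degrees.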
# Sagittaria pygmaea = test: as above; format: in vivo; details: 30 g ai/a granule, 30 days later
# In short: as §3
# barnyardgrass [4] = test: as above; format: in vivo; details: 30 g ai/a granule, post-emergence (barnyardgrass two-leaf stage), 30 days later
# In short: as §3
# cotton = test: Upland foliar application test (Test 3), crop injury; format: in vivo; details: 30 g ai/a, foliar spray at 2-3 leaves, 30th day
# In short: as §1
# soybean = test: as above; format: in vivo; details: 30 g ai/a, foliar spray at 2-3 leaves, 30th day
# In short: as §1
# peanut = test: as above; format: in vivo; details: 30 g ai/a, foliar spray at 2-3 leaves, 30th day
# In short: as §1
# [5] = tested on: ALS (acetolactate syntase); test: ALS enzyme assay (Test 1); format: biochemical, barnyardgrass; details: 1,000 ppm (0.5 mg/0.5 ml)
# In short: as §2
# rice [6] = test: Treatment of soil under submerged condition, post-emergence (Test 5), injury; format: in vivo; details: 30 g ai/a granule, 30 days later
# In short: as §3
structure (smiles),measurement,setting,value
COc1cc(OC)nc(Oc2ccccc2C=NOCC=Cc2ccc(F)cc2)n1 [compound 29],Injury Rice,rice [1],0 (91-100 (No damages))
same,Herbicidal effects Johnsongrass,johnsongrass,5 (0-5 (Death))
same,Herbicidal effects Foxtail meadow,foxtail meadow,4 (6-10 (Severe damages))
same,Herbicidal effects Large crabgrass,large crabgrass,4 (6-10 (Severe damages))
same,Herbicidal effects Common lambsquarters,common lambsquarters,4 (6-10 (Severe damages))
same,Herbicidal effects Redroot pigweed,redroot pigweed,5 (0-5 (Death))
same,Herbicidal effects Green foxtail,green foxtail,4 (6-10 (Severe damages))
same,Herbicidal effects Barnyardgrass,barnyardgrass [2],5 (0-5 (Death))
same,Inhibitory activity (%) Pea,[3],11%
same,Herbicidal effects Bulrush,bulrush,4 (6-10 (Severe damages))
same,Herbicidal effects Sagittaria Pygmaea,Sagittaria pygmaea,4 (6-10 (Severe damages))
same,Herbicidal effects Barnyardgrass,barnyardgrass [4],5 (0-5 (Death))
same,Injury Cotton,cotton,0 (91-100 (No damages))
same,Injury Soybean,soybean,0 (91-100 (No damages))
same,Injury Peanut,peanut,0 (91-100 (No damages))
same,Inhibitory activity (%) Barnyardgrass,[5],98%
same,Injury Rice,rice [6],1 (71-90 (Slight damages))
COc1cc(OC)nc(Oc2ccccc2C=NOCC=Cc2ccc(Cl)cc2)n1 [Compound No. 28],Injury Rice,rice [1],0 (91-100 (No damages))
same,Herbicidal effects Johnsongrass,johnsongrass,5 (0-5 (Death))
same,Herbicidal effects Foxtail meadow,foxtail meadow,5 (0-5 (Death))
same,Herbicidal effects Large crabgrass,large crabgrass,4 (6-10 (Severe damages))
same,Herbicidal effects Common lambsquarters,common lambsquarters,4 (6-10 (Severe damages))
same,Herbicidal effects Redroot pigweed,redroot pigweed,4 (6-10 (Severe damages))
same,Herbicidal effects Green foxtail,green foxtail,4 (6-10 (Severe damages))
same,Herbicidal effects Barnyardgrass,barnyardgrass [2],5 (0-5 (Death))
same,Inhibitory activity (%) Pea,[3],8%
same,Herbicidal effects Bulrush,bulrush,4 (6-10 (Severe damages))
same,Herbicidal effects Sagittaria Pygmaea,Sagittaria pygmaea,4 (6-10 (Severe damages))
same,Herbicidal effects Barnyardgrass,barnyardgrass [4],5 (0-5 (Death))
same,Injury Cotton,cotton,0 (91-100 (No damages))
same,Injury Soybean,soybean,0 (91-100 (No damages))
same,Injury Peanut,peanut,0 (91-100 (No damages))
same,Inhibitory activity (%) Barnyardgrass,[5],91%
same,Injury Rice,rice [6],0 (91-100 (No damages))
COc1cc(OC)nc(Oc2ccccc2C=NOCc2ccccc2)n1 [Compound No. 15],Injury Rice,rice [1],1 (71-90 (Slight damages))
same,Herbicidal effects Johnsongrass,johnsongrass,5 (0-5 (Death))
same,Herbicidal effects Foxtail meadow,foxtail meadow,4 (6-10 (Severe damages))
same,Herbicidal effects Large crabgrass,large crabgrass,4 (6-10 (Severe damages))
same,Herbicidal effects Common lambsquarters,common lambsquarters,5 (0-5 (Death))
same,Herbicidal effects Redroot pigweed,redroot pigweed,5 (0-5 (Death))
same,Herbicidal effects Green foxtail,green foxtail,5 (0-5 (Death))
same,Herbicidal effects Barnyardgrass,barnyardgrass [2],5 (0-5 (Death))
same,Inhibitory activity (%) Pea,[3],0%
same,Herbicidal effects Bulrush,bulrush,4 (6-10 (Severe damages))
same,Herbicidal effects Sagittaria Pygmaea,Sagittaria pygmaea,3 (11-40 (Medium damages))
same,Herbicidal effects Barnyardgrass,barnyardgrass [4],5 (0-5 (Death))
same,Injury Cotton,cotton,0 (91-100 (No damages))
same,Injury Soybean,soybean,0 (91-100 (No damages))
same,Injury Peanut,peanut,0 (91-100 (No damages))
same,Inhibitory activity (%) Barnyardgrass,[5],23%
same,Injury Rice,rice [6],1 (71-90 (Slight damages))
COc1cc(OC)nc(Oc2ccccc2C=NOCc2ccccc2Cl)n1 [compound 16],Injury Rice,rice [1],0 (91-100 (No damages))
same,Herbicidal effects Johnsongrass,johnsongrass,5 (0-5 (Death))
same,Herbicidal effects Foxtail meadow,foxtail meadow,3 (11-40 (Medium damages))
same,Herbicidal effects Large crabgrass,large crabgrass,3 (11-40 (Medium damages))
same,Herbicidal effects Common lambsquarters,common lambsquarters,3 (11-40 (Medium damages))
same,Herbicidal effects Redroot pigweed,redroot pigweed,4 (6-10 (Severe damages))
same,Herbicidal effects Green foxtail,green foxtail,5 (0-5 (Death))
same,Herbicidal effects Barnyardgrass,barnyardgrass [2],3 (11-40 (Medium damages))
same,Inhibitory activity (%) Pea,[3],0%
same,Herbicidal effects Bulrush,bulrush,4 (6-10 (Severe damages))
same,Herbicidal effects Sagittaria Pygmaea,Sagittaria pygmaea,3 (11-40 (Medium damages))
same,Herbicidal effects Barnyardgrass,barnyardgrass [4],4 (6-10 (Severe damages))
same,Injury Cotton,cotton,0 (91-100 (No damages))
same,Injury Soybean,soybean,0 (91-100 (No damages))
same,Injury Peanut,peanut,0 (91-100 (No damages))
same,Inhibitory activity (%) Barnyardgrass,[5],15%
same,Injury Rice,rice [6],0 (91-100 (No damages))
COc1cc(OC)nc(Oc2ccccc2C=NOCc2ccc(Cl)c(Cl)c2)n1 [compound 18],Injury Rice,rice [1],0 (91-100 (No damages))
same,Herbicidal effects Johnsongrass,johnsongrass,5 (0-5 (Death))
same,Herbicidal effects Foxtail meadow,foxtail meadow,4 (6-10 (Severe damages))
same,Herbicidal effects Large crabgrass,large crabgrass,3 (11-40 (Medium damages))
same,Herbicidal effects Common lambsquarters,common lambsquarters,3 (11-40 (Medium damages))
same,Herbicidal effects Redroot pigweed,redroot pigweed,4 (6-10 (Severe damages))
same,Herbicidal effects Green foxtail,green foxtail,5 (0-5 (Death))
same,Herbicidal effects Barnyardgrass,barnyardgrass [2],4 (6-10 (Severe damages))
same,Inhibitory activity (%) Pea,[3],0%
same,Herbicidal effects Bulrush,bulrush,4 (6-10 (Severe damages))
same,Herbicidal effects Sagittaria Pygmaea,Sagittaria pygmaea,4 (6-10 (Severe damages))
same,Herbicidal effects Barnyardgrass,barnyardgrass [4],3 (11-40 (Medium damages))
same,Injury Cotton,cotton,0 (91-100 (No damages))
same,Injury Soybean,soybean,0 (91-100 (No damages))
same,Injury Peanut,peanut,0 (91-100 (No damages))
same,Inhibitory activity (%) Barnyardgrass,[5],14%
same,Injury Rice,rice [6],0 (91-100 (No damages))
COc1cc(OC)nc(Oc2ccccc2C=NOCC=Cc2ccc(C(F)(F)F)cc2)n1 [compound 35],Injury Rice,rice [1],0 (91-100 (No damages))
same,Herbicidal effects Johnsongrass,johnsongrass,5 (0-5 (Death))
same,Herbicidal effects Foxtail meadow,foxtail meadow,5 (0-5 (Death))
same,Herbicidal effects Large crabgrass,large crabgrass,5 (0-5 (Death))
same,Herbicidal effects Common lambsquarters,common lambsquarters,4 (6-10 (Severe damages))
same,Herbicidal effects Redroot pigweed,redroot pigweed,4 (6-10 (Severe damages))
same,Herbicidal effects Green foxtail,green foxtail,5 (0-5 (Death))
same,Herbicidal effects Barnyardgrass,barnyardgrass [2],5 (0-5 (Death))
same,Inhibitory activity (%) Pea,[3],10%
same,Herbicidal effects Bulrush,bulrush,4 (6-10 (Severe damages))
same,Herbicidal effects Sagittaria Pygmaea,Sagittaria pygmaea,3 (11-40 (Medium damages))
same,Herbicidal effects Barnyardgrass,barnyardgrass [4],5 (0-5 (Death))
same,Injury Cotton,cotton,0 (91-100 (No damages))
same,Injury Soybean,soybean,0 (91-100 (No damages))
same,Injury Peanut,peanut,0 (91-100 (No damages))
same,Inhibitory activity (%) Barnyardgrass,[5],89%
same,Injury Rice,rice [6],0 (91-100 (No damages))
CC#CCON=Cc1ccccc1Oc1nc(OC)cc(OC)n1 [compound 10],Injury Rice,rice [1],1 (71-90 (Slight damages))
same,Herbicidal effects Johnsongrass,johnsongrass,5 (0-5 (Death))
same,Herbicidal effects Foxtail meadow,foxtail meadow,4 (6-10 (Severe damages))
same,Herbicidal effects Large crabgrass,large crabgrass,5 (0-5 (Death))
same,Herbicidal effects Common lambsquarters,common lambsquarters,4 (6-10 (Severe damages))
same,Herbicidal effects Redroot pigweed,redroot pigweed,5 (0-5 (Death))
same,Herbicidal effects Green foxtail,green foxtail,4 (6-10 (Severe damages))
same,Herbicidal effects Barnyardgrass,barnyardgrass [2],5 (0-5 (Death))
same,Inhibitory activity (%) Pea,[3],0%
same,Herbicidal effects Bulrush,bulrush,5 (0-5 (Death))
same,Herbicidal effects Sagittaria Pygmaea,Sagittaria pygmaea,5 (0-5 (Death))
same,Herbicidal effects Barnyardgrass,barnyardgrass [4],5 (0-5 (Death))
same,Injury Cotton,cotton,0 (91-100 (No damages))
same,Injury Soybean,soybean,0 (91-100 (No damages))
same,Injury Peanut,peanut,0 (91-100 (No damages))
same,Inhibitory activity (%) Barnyardgrass,[5],55%
same,Injury Rice,rice [6],1 (71-90 (Slight damages))
